Experimental data published in the supplement of paper PMC13380429.

How the values were obtained:
Settings in all cases: 72 h
Caco-2 [1] = assay: cell viability relative to DMSO; higher = less toxic
Calu-3 [2] = assay: as above
HepG2 [3] = assay: as above
U2OS [4] = assay: as above
Vero E6 [5] = assay: as above
Caco-2 [6] = assay: relative viability EC50 (midpoint between 100% and the lowest measured viability); higher = less toxic
Calu-3 [7] = assay: as above
HepG2 [8] = assay: as above
U2OS [9] = assay: as above
Vero E6 [10] = assay: as above
Caco-2 [11] = assay: drug sensitivity score (DSS) for viability; higher = more toxic; extreme values may be limits of the assay
Calu-3 [12] = assay: as above
HepG2 [13] = assay: as above
U2OS [14] = assay: as above
Vero E6 [15] = assay: as above

| SMILES | cell viability (Caco-2 [1]; 1 nM) | cell viability (Caco-2 [1]; 10 nM) | cell viability (Caco-2 [1]; 100 nM) | cell viability (Caco-2 [1]; 1000 nM) | cell viability (Caco-2 [1]; 10000 nM) | cell viability (Calu-3 [2]; 1 nM) | cell viability (Calu-3 [2]; 10 nM) | cell viability (Calu-3 [2]; 100 nM) | cell viability (Calu-3 [2]; 1000 nM) | cell viability (Calu-3 [2]; 10000 nM) | cell viability (HepG2 [3]; 1 nM) | cell viability (HepG2 [3]; 10 nM) | cell viability (HepG2 [3]; 100 nM) | cell viability (HepG2 [3]; 1000 nM) | cell viability (HepG2 [3]; 10000 nM) | cell viability (U2OS [4]; 1 nM) | cell viability (U2OS [4]; 10 nM) | cell viability (U2OS [4]; 100 nM) | cell viability (U2OS [4]; 1000 nM) | cell viability (U2OS [4]; 10000 nM) | cell viability (Vero E6 [5]; 1 nM) | cell viability (Vero E6 [5]; 10 nM) | cell viability (Vero E6 [5]; 100 nM) | cell viability (Vero E6 [5]; 1000 nM) | cell viability (Vero E6 [5]; 10000 nM) | relative viability EC50 (Caco-2 [6]) | relative viability EC50 (Calu-3 [7]) | relative viability EC50 (HepG2 [8]) | relative viability EC50 (U2OS [9]) | relative viability EC50 (Vero E6 [10]) | drug sensitivity score (Caco-2 [11]) | drug sensitivity score (Calu-3 [12]) | drug sensitivity score (HepG2 [13]) | drug sensitivity score (U2OS [14]) | drug sensitivity score (Vero E6 [15]) |
| --- | --- | --- | --- | --- | --- | --- | --- | --- | --- | --- | --- | --- | --- | --- | --- | --- | --- | --- | --- | --- | --- | --- | --- | --- | --- | --- | --- | --- | --- | --- | --- | --- | --- | --- | --- |
| CC(C(=O)O)c1ccc2c(c1)[nH]c1ccc(Cl)cc12 (stereo not given) [carprofen] | 96.4% | 96.5% | 88.4% | 95.7% | 94.6% | 96.5% | 95.5% | 104% | 104% | 94% | 103% | 101% | 90.6% | 96.5% | 99.6% | 96.5% | 102% | 96.1% | 100% | 98.7% | 107% | 101% | 115% | 99.4% | 101% | > 10 µM | > 10 µM | > 10 µM | > 10 µM | > 10 µM | 0 | 0 | 0 | 0 | 0 |
| CNCCCOc1cc(F)c(-c2c(Cl)nc3ncnn3c2N[C@@H](C)C(F)(F)F)c(F)c1 [cevipabulin] | 102% | 110% | 72.3% | 44.7% | 48.1% | 106% | 116% | 83.4% | 43.7% | 34.7% | 96.8% | 102% | 29.3% | 21.9% | 22.8% | 94.8% | 102% | 65.8% | 25.6% | 21% | 105% | 106% | 89.5% | 11.6% | 8.3% | 0.1 µM | 0.237 µM | 0.0431 µM | 0.121 µM | 0.241 µM | 13.7 | 12.5 | 22.9 | 18.1 | 17.9 |
| Nc1ncnc(Nc2ccc(Cl)cc2)n1 [chlorazanil] | 116% | 97.7% | 96.5% | 101% | 103% | 104% | 101% | 103% | 87.4% | 98.4% | 96.4% | 93.9% | 88% | 93.7% | 92.5% | 101% | 96.8% | 97.8% | 98.3% | 99.6% | 99.6% | 101% | 91% | 98.6% | 101% | > 10 µM | > 10 µM | > 10 µM | > 10 µM | > 10 µM | 0 | 0 | 0 | 0 | 0 |
| CCN(CC)CCN(Cc1ccc(-c2ccc(C(F)(F)F)cc2)cc1)C(=O)Cn1c(SCc2ccc(F)cc2)nc(=O)c2c1CCC2 [darapladib] | 93.5% | 93.6% | 98.9% | 93.8% | 13% | 102% | 95.7% | 106% | 90.2% | 0.4% | 91.8% | 97.1% | 85.3% | 101% | 0.3% | 102% | 98.3% | 103% | 98.4% | 1.6% | 91.9% | 100% | 90.1% | 92.4% | 45.1% | 2.59 µM | 2.35 µM | 3.21 µM | 3.05 µM | 2.05 µM | 5.8 | 7.1 | 5.5 | 5.7 | 4.2 |
| CC[C@H](CC[C@@H](C)[C@H]1CC[C@H]2[C@@H]3CC=C4C[C@@H](O[C@@H]5O[C@H](CO)[C@@H](O)[C@H](O)[C@H]5O)CC[C@]4(C)[C@H]3CC[C@]12C)C(C)C [daucosterol] | 88.7% | 99.4% | 107% | 102% | 100% | 98.4% | 106% | 99.3% | 108% | 110% | 92.5% | 96.2% | 102% | 101% | 106% | 97.2% | 98.1% | 101% | 100% | 103% | 95.9% | 100% | 94.5% | 90.5% | 102% | > 10 µM | > 10 µM | > 10 µM | > 10 µM | > 10 µM | 0 | 0 | 0 | 0 | 0 |
| C[C@H]1O[C@@H](O[C@H]2CC[C@@]3(C)[C@H](CC[C@@H]4[C@@H]3C[C@@H](O)[C@]3(C)[C@@H](C5=CC(=O)OC5)CC[C@]43O)C2)C[C@H](O)[C@@H]1O[C@H]1C[C@H](O)[C@H](O[C@H]2C[C@H](O)[C@H](O[C@@H]3O[C@H](CO)[C@@H](O)[C@H](O)[C@H]3O)[C@@H](C)O2)[C@@H](C)O1 [deslanoside] | 98.3% | 95% | 69.8% | 18.6% | 20% | 102% | 97.2% | 94.2% | 28.1% | 19.1% | 89.4% | 92.9% | 76.2% | 25.5% | 6.7% | 101% | 98.9% | 93.2% | 5.9% | 10.9% | 96.7% | 94.3% | 14.8% | 1.5% | 1% | 0.131 µM | 0.356 µM | 0.266 µM | 0.258 µM | 0.0401 µM | 18.5 | 14 | 16.7 | 18 | 28.7 |
| CC(C)[C@@H](C)/C=C/[C@@H](C)[C@H]1CC[C@H]2/C(=C/C=C3\C[C@@H](O)CC[C@@H]3C)CCC[C@]12C [dihydrotachysterol] | 108% | 96% | 100% | 104% | 103% | 97.4% | 99.7% | 97.7% | 99.6% | 97.7% | 92.8% | 94.3% | 95.8% | 93.2% | 106% | 104% | 93.1% | 101% | 99.3% | 100% | 101% | 100% | 98.1% | 102% | 110% | > 10 µM | > 10 µM | > 10 µM | > 10 µM | > 10 µM | 0 | 0 | 0 | 0 | 0 |
